Results as given in article PMC10592443 (Cell chemical biology, 2023).
Each block holds one compound with its values, some of them ahead of it. Residues, ends and D or L forms follow the SMILES beside them. *: point of attachment. Cbz = O=C(OCc1ccccc1)*; CH2F = FC*

Experiments:
[1] = system: PP5-FLAG active site point mutants; experiment: Biotin-P13 streptavidin pulldown of PP5 active site point mutants; type: binding, Human
[2] = molecular target: T1, PP5-FLAG active site point mutants (Homo sapiens, UniProt P53041, R400A); experiment: as above; type: binding; conditions: R400A mutant
T1 sequence (P53041 2-499 R400A): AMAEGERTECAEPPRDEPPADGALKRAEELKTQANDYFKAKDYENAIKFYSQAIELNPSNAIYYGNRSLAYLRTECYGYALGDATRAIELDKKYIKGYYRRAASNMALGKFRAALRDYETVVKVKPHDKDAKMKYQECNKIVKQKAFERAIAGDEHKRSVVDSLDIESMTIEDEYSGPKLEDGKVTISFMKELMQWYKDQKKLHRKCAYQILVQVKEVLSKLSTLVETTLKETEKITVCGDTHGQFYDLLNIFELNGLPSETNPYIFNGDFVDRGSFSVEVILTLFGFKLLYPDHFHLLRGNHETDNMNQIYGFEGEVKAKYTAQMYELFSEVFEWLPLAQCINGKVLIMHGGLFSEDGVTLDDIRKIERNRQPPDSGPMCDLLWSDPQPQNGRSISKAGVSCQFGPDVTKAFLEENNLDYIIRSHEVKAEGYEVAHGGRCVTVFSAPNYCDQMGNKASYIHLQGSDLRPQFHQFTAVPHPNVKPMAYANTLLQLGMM

[3] = system: PP2A; experiment: Biotinylated compound pulldown from 786-O lysate, co-pulldown of PP2A; type: binding, Human; conditions: 1μM
[4] = molecular target: T2, PP5-FLAG (Homo sapiens, UniProt P53041); experiment: Biotin-P5 and biotin-P13 streptavidin pulldown from HEK293 lysate; type: binding; conditions: for binding to PP5-FLAG (co-pulldown): HEK293 lysate, 0.01-10μM biotinylated compound
T2 sequence (P53041 1-499): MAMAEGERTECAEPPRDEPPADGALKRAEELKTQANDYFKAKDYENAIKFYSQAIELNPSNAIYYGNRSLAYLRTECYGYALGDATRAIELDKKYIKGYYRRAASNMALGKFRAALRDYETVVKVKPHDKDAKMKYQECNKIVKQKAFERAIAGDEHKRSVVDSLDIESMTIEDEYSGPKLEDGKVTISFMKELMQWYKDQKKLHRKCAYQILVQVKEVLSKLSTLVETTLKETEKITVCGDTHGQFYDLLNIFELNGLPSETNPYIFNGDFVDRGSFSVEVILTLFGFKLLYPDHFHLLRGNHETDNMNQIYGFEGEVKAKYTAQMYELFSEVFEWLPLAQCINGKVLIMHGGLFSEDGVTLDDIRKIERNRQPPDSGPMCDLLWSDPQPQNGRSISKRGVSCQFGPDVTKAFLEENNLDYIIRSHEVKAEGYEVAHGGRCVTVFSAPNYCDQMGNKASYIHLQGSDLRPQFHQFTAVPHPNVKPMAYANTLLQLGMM

[5] = system: 786-O cells; experiment: Induction of apoptosis by immunoblotting of apoptotic markers; type: cell-based, Human
[6] = system: HEK293 cells; experiment: Hsp90 inhibition time course, protein levels by immunoblot; type: cell-based, Human; conditions: 2μM
[7] = molecular target: T3, recombinant PP5-His6 (Homo sapiens, UniProt P53041); experiment: PP5 phosphatase activity and inhibition assay; type: biochemical; conditions: phospho-S211-GR peptide substrate
T3 sequence (P53041 1-499): T2 sequence (P53041 1-499)

[8] = system: 786-O cells; experiment: Cell viability / proliferation; type: cell-based, Human; conditions: varying doses, 48hrs
[9] = system: A498 cells; experiment: Phosphorylation of S194-FADD by western blot; type: cell-based, Human; conditions: indicated amounts, 24hrs
[10] = system: VHL-null ccRCC cell lines; conditions: ref [2]; cited from earlier work
[11] = system: 786-O cells; experiment: Phosphorylation of S194-FADD by western blot; type: cell-based, Human; conditions: indicated amounts, 24hrs
[12] = system: PP1; conditions: ref [52]-[54]; cited from earlier work
[13] = system: PP5; conditions: ref [52]-[54]; cited from earlier work
[14] = system: VHL-null ccRCC cells; experiment: Propidium iodide staining, cell death by flow cytometry; type: cell-based, Human; conditions: 30 or 40μM, A498 and 786-O versus Caki-1 and Caki-2; dose dependent

- binding of PP5 mutants to biotinylated compound ([1]; H304Q, M309C and W386F mutants): unable to bind
- binding of PP5 mutants to biotinylated compound compared to WT PP5 ([1]; R275A and Y451F mutants): increased binding
- binding of PP5 mutant to biotinylated compound compared to WT PP5 [2]: reduced binding
- binding to PP2A (co-pulldown) [3]: did not bind to PP2A
- binding to PP5-FLAG relative to biotin-P5 ([4]; 10μM): bound more
- binding to PP5-FLAG (co-pulldown) [4]: binds
SMILES: Cc1ccc(N(CCCNC(=O)CCC[C@@H]2SC[C@@H]3NC(=O)N[C@@H]32)S(=O)(=O)c2c(C)noc2C)cc1C [biotin-P13, 4-[(3aS,4S,6aR)-2-Oxo-hexahydro-1H-thieno[3,4-d]imidazol-4-yl]-N-(3-[N-(3,4-dimethylphenyl)3,5-dimethyl-1,2-oxazole-4-sulfonamido]propyl}butanamide]

SMILES: CCCCN(c1ccc(Oc2ccccc2)cc1)S(=O)(=O)c1c(C)noc1C [Compound P058, N-Butyl(3,5-dimethyl-4-isoxazolylsulfonyl)(p-phenoxyphenyl)amine]
- induction of apoptosis (cleaved PARP, cleaved caspase 8) ([5]; 10μM, 24hrs): ability to induce apoptosis

SMILES: CC1(C)CC(=O)c2c(C(F)(F)F)nn(-c3ccc(C(N)=O)c(N[C@H]4CC[C@H](O)CC4)c3)c2C1 [SNX-2112]
- RIPK1 protein levels ([6]; 16 hr): decreased RIPK1 protein levels
- FADD protein levels ([6]; throughout the time course): did not observe a decrease in FADD levels
- Hsp90 clients Tsc2, Akt and phos-Ser473-Akt protein levels ([6]; time course): destabilized and degraded

- mode of PP5 inhibition (enzyme kinetics, Lineweaver-Burk plot) [7]: competitive inhibitors
SMILES: COC(=O)c1cccc(NS(=O)(=O)c2c(C)noc2C)c1 [Compound P5, Methyl m-(3,5-dimethyl-4-isoxazolylsulfonylamino)benzoate]
- cleavage of apoptotic markers (immunoblot) ([5]; 10μM, 24hrs): cleavage of the apoptotic markers caspase 3 and 8 and PARP
- proliferation of 786-O cells (MTT) [8]: significantly inhibited the proliferation

SMILES: Cc1noc(C)c1S(=O)(=O)N(CCCCl)c1ccc(Oc2ccccc2)cc1 [Compound P059, (3-Chloropropyl)(3,5-dimethyl-4-isoxazolylsulfonyl)(p-phenoxyphenyl)amine]
- induction of apoptosis (cleaved PARP, cleaved caspase 8) ([5]; 10μM, 24hrs): ability to induce apoptosis

SMILES: COc1cc(OC)c(C=C2C(O)=Nc3ccccc32)c(OC)c1 [IC261]
- S194-FADD phosphorylation [9]: increase in S194-FADD phosphorylation
- induction of extrinsic apoptosis (apoptotic markers) ([5]; indicated amounts, 16hrs): induced extrinsic apoptosis in a dose-dependent manner
- PP5 activity [10]: decreased PP5 activity
- apoptosis [10]: induced apoptosis
- S194-FADD phosphorylation [11]: increase in S194-FADD phosphorylation

- mode of PP5 inhibition (enzyme kinetics, Lineweaver-Burk plot) [7]: competitive inhibitors
SMILES: Cc1ccc(NS(=O)(=O)c2c(C)noc2C)cc1C [Compound P13, (3,5-Dimethyl-4-isoxazolylsulfonyl)(3,4-xylyl)amine]
- cleavage of apoptotic markers (immunoblot) ([5]; 10μM, 24hrs): cleavage of the apoptotic markers caspase 3 and 8 and PARP
- proliferation of 786-O cells (MTT) [8]: significantly inhibited the proliferation

SMILES: CN1CCN(C(=O)C2C(C(=O)O)[C@H]3CC[C@@H]2O3)CC1 (some centres unmarked) [LB-100]
- inhibition of PP1 [12]: inhibit PP5 and PP1
- inhibition of PP5 [13]: inhibit PP5 and PP1

SMILES: Cc1noc(C)c1S(=O)(=O)Nc1ccc(Cc2ccccc2)cc1 [Compound P053, (3,5-Dimethyl-4-isoxazolylsulfonyl)(p-benzylphenyl)amine]
- cleavage of caspase 3 and PARP ([5]; 10μM, 24hrs): increased cleavage of the executioner caspase 3
- cleavage of caspase 8 and caspase 9 (extrinsic versus intrinsic apoptosis) ([5]; 10μM, 24hrs): cleavage of caspase 8 but not caspase 9
- induction of apoptosis (cleaved PARP, cleaved caspase 8) ([5]; 10μM, 24hrs): ability to induce apoptosis
- cell death (PI stained cells) [14]: selectively caused cell death

SMILES: Cc1noc(C)c1S(=O)(=O)N(CCCC#N)c1ccc(Oc2ccccc2)cc1 [Compound P075, 4-[(3,5-Dimethyl-4-isoxazolylsulfonyl)(p-phenoxyphenyl)amino]butyronitrile]
- induction of apoptosis (cleaved PARP, cleaved caspase 8) ([5]; 10μM, 24hrs): ability to induce apoptosis

SMILES: COC(=O)C[C@H](NC(=O)[C@H](C)NC(=O)[C@@H](NC(=O)OCc1ccccc1)C(C)C)C(=O)CF [z-VAD-fmk, reference compound] (Cbz-Val-Ala-Asp(OMe)-CH2F)
- effect on IC261-induced extrinsic apoptosis ([5]; 10μM for 1hr, then IC261 for 16hrs): reversed this effect

- binding to PP2A (co-pulldown) [3]: did not bind to PP2A
- binding to PP5-FLAG (co-pulldown) [4]: binds
SMILES: Cc1noc(C)c1S(=O)(=O)Nc1cccc(C(=O)N2CCN(C(=O)CCC[C@@H]3SC[C@@H]4NC(=O)N[C@@H]43)CC2)c1 [biotin-P5, N-[3-(4-(4-[(3aS,4S,6aR)-2-Oxo-hexahydro-1H-thieno[3,4-d]imidazol-4-yl]butanoyl)piperazine-1-carbonyl)phenyl]-3,5-dimethyl-1,2-oxazole-4-sulfonamide]
